In brackets after ≈: the same amount, converted by molar mass.

The test system of data set [1] is Oncorhynchus mykiss. The conditions noted are these: acute, mortality.
Data set [2] concerns Tagia sp. The conditions noted are these: chronic/long-term; growth.
Data set [3] deals with Daphnia magna. The conditions noted are these: chronic/long-term; duration: 21 days; reproduction.
Data set [4] concerns Folsomia candida. To be noted: chronic/long-term; mortality.
Data set [5] has as its system Rattus norvegicus. To be noted: for LD50: acute, mortality.
In data set [6] the test system is Colinus virginianus. The conditions noted are these: for LD50: acute, oral, mortality.
Data set [7] concerns Chironomus tentans. The conditions noted are these: chronic/long-term; duration: 24 days.
The test system of data set [8] is Apis mellifera. The conditions noted are these: acute, mortality.
Data set [9] deals with Neomysis kadiakensis. To be noted: chronic/long-term; duration: 28 days; reproduction.
Data set [10] has as its system Pimephales promelas. To be noted: chronic/long-term; duration: 266 days; reproduction.

As usually defined, the LC50 is the concentration lethal to half of the exposed cells or organisms. In data set [1], `CSC1=N[C@@](C)(c2ccccc2)C(=O)N1` had an LC50 of more than 98 µg/mL. In addition, the NOEC is 100 mg/kg in data set [2], 16 mg/L in data set [3] and 250 mg/kg in data set [4]. For the same compound, the LD50 in data set [5] worked out at 176 mg/kg; in data set [6] (diet), 723 mg/kg.
The term NOAEL denotes the highest tested level that showed no adverse finding. Turning to `CC1(c2ccccc2)NC(=O)NC1=O` (configuration not stated) [5-Methyl-5-phenylhydantoin], the figures for the LD50 in data set [5] (oral) and in data set [6] (diet) were 1520 mg/kg and more than 2500 mg/kg, respectively. The NOAEL in [5] (subchronic, duration: 90 days, oral) was 6.4 mg/kg-day.
In turn, `CSC1=N[C@@](C)(c2ccccc2)C(=O)N1Nc1ccccc1` [(S)-1-Anilino-4-methyl-2-methylthio-4-phenylimidazolin-5-one] returned an LC50 in [1] (duration: 96 hours) of 0.74 µg/mL (≈ 2.38 µM). Also, the NOEC came to 0.63 mg/kg in data set [2]; 2.26 mg/kg in data set [4]; 0.05 mg/L in data set [7]; 0.0095 mg/L in [9]; 0.07 mg/L in data set [10]. For the same compound, the LD50 in data set [5] is more than 2030 mg/kg; in [6] (diet), more than 1070 mg/kg; in data set [6], more than 2000 mg/kg; in data set [8] (dermal) it was 25.7 µg/piece; in [8] (oral, unspecified) it was more than 93.3 µg/piece. The compound further had an NOAEL in data set [5] (chronic, body weight) of 3.9 mg/kg-day. Besides, the NOEL in data set [6] (chronic, reproduction) was 133 mg/kg-day.

Source of the values: EPA's ToxValDB 9.5 (doi:10.2903/j.efsa.2016.4406).
